Structures can show the parent of a compound that is named as a salt. Where two headings read alike, the source gives them in different places.
How the values were obtained:
[1] = test system: T24-BAG4 human bladder carcinoma cells expressing an activated H-ras gene; assay: Cell Mat Assay, T24 tumor cells; assay type: cell-based; conditions: read-out: Tumor (T-24) IC50
[2] = test system: DLD-1-BAG human colon carcinoma cells expressing as activated K-ras gene; assay: Cell Mat Assay, DLD-1 tumor cells; assay type: cell-based; conditions: Homo sapiens, DLD-1, Mat assay
[3] = test system: Normal human HEPM fibroblasts; assay: Cell Mat Assay, normal cell mat; assay type: cell-based; conditions: normal monolayer
[4] = test system: SW620-BAG human colon carcinoma cells expressing an activated K-ras gene; assay: Cell Mat Assay, SW620 tumor cells; assay type: cell-based
[5] = test system: Ras-CVLS processing in COS monkey kidney cells; assay: COS cell assay: inhibition of Ras-CVLS processing (Western blot); assay type: cell-based
Text: • 1. In vitro enzyme assays: Inhibition of farnesyl protein transferase and geranylgeranyl protein transferase. Both farnesyl protein transferase (FPT) and geranylgeranyl protein transferase (GGPT) I were partially purified from rat brain by ammonium sulfate fractionation followed by Q-Sepharose (Pharmacia, Inc.) anion exchange chromatography essentially as described by Yokoyama et al (Yokoyama, K., et al., (1991), A protein geranylgeranyltransferase from bovine brain: Implications for protein prenylation specificity, Proc. Natl. Acad. Sci USA 88: 5302-5306, the disclosure of which is incorporated herein by reference thereto). Human farnesyl protein transferase was also expressed in E. coli, using cDNA clones encoding both the a and b subunits. The methods used were similar to those published (Omer, C. et al., (1993), Characterization of recombinant human farnesyl protein transferase: Cloning, expression, farnesyl diphosphate binding, and functional homology with yeast prenyl-protein transferases, Biochemistry 32:5167-5176). Human farnesyl protein transferase was partially-purified from the soluble protein fraction of E. coli as described above. […] Two forms of val^12-Ha-Ras protein were prepared as substrates for these enzymes, differing in their carboxy terminal sequence. One form terminated in cysteine-valine-leucine-serine (Ras-CVLS) the other in cystein-valine-leucine-leucine (Ras-CVLL). Ras-CVLS is a substrate for the farnesyl protein transferase while Ras-CVLL is a substrate for geranylgeranyl protein transferase I. The cDNAs encoding these proteins were constructed so that the proteins contain an amino-terminal extension of 6 histidine residues. Both proteins were expressed in Escherichia coli and purified using metal chelate affinity chromatography. The radiolabelled isoprenyl pyrophosphate substrates, [^3H]farnesyl pyrophosphate and [^3H]geranylgeranyl pyrophosphate, were purchased from DuPont/New England Nuclear. Several methods for measuring farnesyl protein transferase activity have been described (Reiss et al 1990, Cell 62: 81; Schaber et al 1990, J. Biol. Chem. 265: 14701; Manne et al 1990, PNAS 87: 7541; and Barbacid & Manne 1993, U.S. Patent No. 5,185,248). […] The reaction was allowed to proceed for 30 minutes at room temperature and then stopped with 0.5 ml of 4% sodium dodecyl sulfate (SDS) followed by 0.5 ml of cold 30% TCA. Samples were allowed to sit on ice for 45 minutes and precipitated Ras protein was then collected on GF/C filter paper mats using a Brandel cell harvester. Filter mats were washed once with 6% TCA, 2% SDS and radioactivity was measured in a Wallac 1204 Betaplate BS liquid scintillation counter. Percent inhibition was calculated relative to the DMSO vehicle control. The geranylgeranyl protein transferase I assay was essentially identical to the farnesyl protein transferase assay described above, with two exceptions: [^3H]geranylgeranylpyrophosphate replaced farnesyl pyrophosphate as the isoprenoid donor and Ras-CVLL was the protein acceptor. […] Cell-Based Assay: Transient expression of val^12-Ha-Ras-CVLS and val^12-Ha-Ras-CVLL in COS monkey kidney cells: Effect of farnesyl protein transferase inhibitors on Ras processing and on disordered cell growth induced by transforming Ras. COS monkey kidney cells were transfected by electroporation with the plasmid pSV-SPORT (Gibco/BRL) containing a cDNA insert encoding either Ras-CVLS or Ras-CVLL, leading to transient overexpression of a Ras substrate for either farnesyl protein transferase or geranylgeranyl protein transferase I, respectively (see above). Following electroporation, cells were plated into 6-well tissue culture dishes containing 1.5 ml of Dulbecco's-modified Eagle's media (GIBCO, Inc.) supplemented with 10% fetal calf serum and the appropriate farnesyl protein transferase inhibitors. After 24 hours, media was removed and fresh media containing the appropriate drugs was re-added.

[6] = biological target: T1, farnesyl protein transferase (FPT) (Rattus norvegicus, UniProt Q02293+Q04631); assay: In vitro enzyme assay: inhibition of farnesyl protein transferase (transfer of [3H]farnesyl to Ras-CVLS); assay type: biochemical; conditions: partially purified rat brain FPT, Ras-CVLS
T1 construct: were partially purified from rat brain by ammonium sulfate fractionation followed by Q-Sepharose; from tissue; host or cells: rat brain
Description: • 1. In vitro enzyme assays: Inhibition of farnesyl protein transferase and geranylgeranyl protein transferase. […] Human farnesyl protein transferase was also expressed in E. coli, using cDNA clones encoding both the a and b subunits. […] Human farnesyl protein transferase was partially-purified from the soluble protein fraction of E. coli as described above. […] Two forms of val^12-Ha-Ras protein were prepared as substrates for these enzymes, differing in their carboxy terminal sequence. One form terminated in cysteine-valine-leucine-serine (Ras-CVLS) the other in cystein-valine-leucine-leucine (Ras-CVLL). Ras-CVLS is a substrate for the farnesyl protein transferase while Ras-CVLL is a substrate for geranylgeranyl protein transferase I. The cDNAs encoding these proteins were constructed so that the proteins contain an amino-terminal extension of 6 histidine residues. Both proteins were expressed in Escherichia coli and purified using metal chelate affinity chromatography. The radiolabelled isoprenyl pyrophosphate substrates, [^3H]farnesyl pyrophosphate and [^3H]geranylgeranyl pyrophosphate, were purchased from DuPont/New England Nuclear. […] The reaction was allowed to proceed for 30 minutes at room temperature and then stopped with 0.5 ml of 4% sodium dodecyl sulfate (SDS) followed by 0.5 ml of cold 30% TCA. Samples were allowed to sit on ice for 45 minutes and precipitated Ras protein was then collected on GF/C filter paper mats using a Brandel cell harvester. […] Percent inhibition was calculated relative to the DMSO vehicle control. The geranylgeranyl protein transferase I assay was essentially identical to the farnesyl protein transferase assay described above, with two exceptions: [^3H]geranylgeranylpyrophosphate replaced farnesyl pyrophosphate as the isoprenoid donor and Ras-CVLL was the protein acceptor. […] Cell-Based Assay: Transient expression of val^12-Ha-Ras-CVLS and val^12-Ha-Ras-CVLL in COS monkey kidney cells: Effect of farnesyl protein transferase inhibitors on Ras processing and on disordered cell growth induced by transforming Ras. COS monkey kidney cells were transfected by electroporation with the plasmid pSV-SPORT (Gibco/BRL) containing a cDNA insert encoding either Ras-CVLS or Ras-CVLL, leading to transient overexpression of a Ras substrate for either farnesyl protein transferase or geranylgeranyl protein transferase I, respectively (see above). Following electroporation, cells were plated into 6-well tissue culture dishes containing 1.5 ml of Dulbecco's-modified Eagle's media (GIBCO, Inc.) supplemented with 10% fetal calf serum and the appropriate farnesyl protein transferase inhibitors. After 24 hours, media was removed and fresh media containing the appropriate drugs was re-added. 48 hours after electroporation cells were examined under the microscope to monitor disordered cell growth induced by transforming Ras. Cells expressing transforming Ras become more rounded and refractile and overgrow the monolayer, reminiscent of the transformed phenotype. Cells were then photographed, washed twice with 1 ml of cold phosphate-buffered saline (PBS) and removed from the dish by scraping with a rubber policeman into 1 ml of a buffer containing 25 mM Tris, pH 8.0; 1 mM ethylenediamine tetraacetic acid; 1 mM phenylmethylsulfonyl fluoride; […] leupeptin; and 0.1 mM pepstatin. Cells were lysed by homogenization and cell debris was removed by centrifugation at 2000 x g for 10 min. Cellular protein was precipitated by addition of ice-cold trichloroacetic acid and redissolved in […] of SDS-electrophoresis sample buffer. […] Proteins resolved on the gels were electroblotted onto nitrocellulose membranes for immunodetection. […] After washing, membranes were incubated for one hour at room temperature with a 1:5000 dilution of secondary antibody, rabbit anti-rat IgG conjugated to horseradish peroxidase, in PBS containing 1% fetal calf serum.

[7] = test system: DLD-1 (human colon carcinoma cells, ATCC # CCL 221); assay: In Vivo Anti-Tumor Studies, subcutaneous DLD-1 tumors; design: species or system athymic nu/nu female mice; conditions: Mus musculus, DLD-1, po, QID, 4 weeks, range over the listed compounds
Text: Tumor cells (5 X 10^5 to 8 X 10^6) of DLD-1 (human colon carcinoma cells, ATCC # CCL 221) are innolculated subcutaneously into the flank of 5-6 week o;d athymic nu/nu female mice.

[8] = Homo sapiens, SW-620, Mat assay

SMILES | IC50 ([1]; Homo sapiens) | IC50 [2] | IC50 [4, 8] | IC50 ([5]; Primates, COS) | IC50 ([6]; Table 1, read-out: FPT IC50) | also measured
NC(=O)N1CCC(CC(=O)N2CCC(=C3c4ncc(Br)cc4CCc4cc(Cl)cc(Br)c43)CC2)CC1 (racemic) [Example 8] | < 1600 nM | 3100 nM | 3100 nM | < 250 nM | – | IC50 ([3]; Homo sapiens, Fibroblast): > 25000 nM
O=C(Cc1cc[n+]([O-])cc1)N1CCN(C2c3ncc(Br)cc3CCc3cc(Cl)cc(Br)c32)CC1 (racemic) [Example 11] | – | – | – | < 250 nM | 2 nM | –
O=C(Cc1cc[n+]([O-])cc1)N1CCC(=C2c3ncc(Br)cc3CCc3cc(Cl)cc(Br)c32)CC1 (single isomer, unassigned) [Example 7A] | – | – | – | – | – | IC50 [1]: < 1600 nM; IC50 ([6]; FPT IC50, Table 1): > 100 nM; IC50 [3]: > 25000 nM; IC50 [5]: > 1000 nM; inhibition in vivo at 10 mg/kg ([7]; 10 mg/kg p.o.): 7 to 50%; inhibition in vivo at 50 mg/kg ([7]; 50 mg/kg p.o.): 35.4 to 83%
O=C(Cc1cc[n+]([O-])cc1)N1CCC(C2c3ncc(Br)cc3CCc3cc(Cl)cc(Br)c32)CC1 (single isomer, unassigned) [Example 9A] | < 1600 nM | – | – | 850 nM | – | –
NC(=O)N1CCC(CC(=O)N2CCC(C3c4ccc(Cl)c(Br)c4CCc4cc(Br)cnc43)CC2)CC1 (single isomer, unassigned) [Example 13A] | – | 6250 nM | – | – | – | IC50 ([4]; Mat assay): 6250 nM; IC50 [5]: > 1000 nM
NC(=O)N1CCC(CC(=O)N2CCC(C3c4ccc(Cl)c(Br)c4CCc4cc(Br)cnc43)CC2)CC1 (single isomer, unassigned) [Example 13B] | < 1600 nM | – | > 3100 nM | – | – | –
O=C(Cc1cc[n+]([O-])cc1)N1CCN(C2c3ncc(Br)cc3CCc3cc(Cl)cc(Cl)c32)CC1 (single isomer, unassigned) [Example 19] | < 1600 nM | < 1600 nM | 6250 nM | – | < 3.8 nM | IC50 ([3]; Homo sapiens, Fibroblast): > 25000 nM
O=C(Cc1cc[n+]([O-])cc1)N1CCN(C2c3ncc(Br)cc3CCc3cccc(Cl)c32)CC1 (single isomer, unassigned) [Example 20] | – | – | – | ~30 nM | – | –
O=C(Cc1cc[n+]([O-])cc1)N1CCN(C2c3ccc(Cl)c(Br)c3CCc3cc(Br)cnc32)CC1 (stereo not shown) [5 • HCl salt] | – | – | – | 10 nM | 3.8 nM | –

— EP1019392B1, “TRICYCLIC AMIDES USEFUL FOR INHIBITION OF G-PROTEIN FUNCTION AND FOR TREATMENT OF PROLIFERATIVE DISEASES” (SCHERING CORPORATION, priority 1995, dated 1997)
